Like-named read-outs stand apart in the source and are kept apart here.
Columns and labels:
[1] = target: T1, RORγ ligand binding domain (LBD) (Homo sapiens, UniProt P51449); experiment: TR-FRET Activity Assay (ligand sensing, RORγ-LBD / coactivator peptide interaction, LANCE); type: biochemical
T1 construct: made in house; host or cells: E. coli BL-21 (BL3), vector pDEST15
T1 sequence (P51449 269-508 limits assumed): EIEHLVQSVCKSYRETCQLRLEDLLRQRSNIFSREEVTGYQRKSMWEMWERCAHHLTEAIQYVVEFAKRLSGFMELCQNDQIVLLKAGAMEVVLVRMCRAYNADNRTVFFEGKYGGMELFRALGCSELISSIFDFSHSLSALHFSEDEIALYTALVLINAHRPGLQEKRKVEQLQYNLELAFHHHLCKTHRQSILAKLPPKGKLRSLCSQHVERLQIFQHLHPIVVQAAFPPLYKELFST

RORγ = target: T2, RORγ (UniProt P51449); experiment: RORγ Gal4 Reporter Gene Assay in 293T cells (firefly and renilla luciferase); type: cell-based, human
T2 sequence (P51449 1-518): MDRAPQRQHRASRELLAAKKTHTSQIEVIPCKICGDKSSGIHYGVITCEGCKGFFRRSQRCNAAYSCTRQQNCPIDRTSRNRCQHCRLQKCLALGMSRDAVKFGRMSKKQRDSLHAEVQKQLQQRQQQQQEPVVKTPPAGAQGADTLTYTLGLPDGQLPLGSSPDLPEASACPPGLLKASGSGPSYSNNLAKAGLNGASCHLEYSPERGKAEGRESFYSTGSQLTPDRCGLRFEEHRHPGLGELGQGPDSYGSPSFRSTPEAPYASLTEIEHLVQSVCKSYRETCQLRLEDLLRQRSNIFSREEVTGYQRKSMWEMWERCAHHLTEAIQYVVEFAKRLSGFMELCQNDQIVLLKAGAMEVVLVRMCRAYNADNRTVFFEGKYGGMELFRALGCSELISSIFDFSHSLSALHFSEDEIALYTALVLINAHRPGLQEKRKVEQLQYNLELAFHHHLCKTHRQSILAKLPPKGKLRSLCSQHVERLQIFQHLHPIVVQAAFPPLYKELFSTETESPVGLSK

[2] = first value of the cell FRET/FF/REN, TR-FRET activity assay, read-out: pIC50 (FRET) (converted)
[3] = second value of the cell, Gal4 reporter gene assay in 293T cells, firefly luciferase
[4] = third value of the cell, Gal4 reporter gene assay in 293T cells, renilla normalised luciferase

IC50 [1, 2]	pIC50 (FF) (RORγ; [3])	pIC50 (REN) (RORγ; [4])	SMILES	IC50 [1]	pIC50 (FF) (RORγ)	pIC50 (REN) (RORγ)
1260 nM	7.4	7.4	Cc1c(C(=O)NC2COC2)cc(-c2cc(C(=O)NC(C)C)cc(C(C)(C)C)c2)n1CC1CCCCC1 [15/6]			
			Cc1c(C(=O)NCC(C)(C)O)cc(-c2cc(C(=O)NC(C)(C)C)cc(C(C)(C)C)c2)n1CC1CCCCC1 [15/8]	1000 nM	6.0/7.3/7.4	6.0/7.3/7.4
1000 nM	6.9	7.0	Cc1c(C(=O)NCC(C)(C)O)cc(-c2cc(C(=O)NC(C)C)cc(C(C)(C)C)c2)n1CC1CCCCC1 [15/9]			
			Cc1c(C(=O)NC2CCOCC2)cc(-c2ccc(S(=O)(=O)N(CC(F)(F)F)C(C)(C)C)c(C(C)(C)C)c2)n1CC1CCCCC1 [17/1]	1260 nM	5.9/8.0/7.9	5.9/8.0/7.9
			Cc1c(C(=O)NCCC[S+](C)[O-])cc(-c2cc(C(C)(C)C)c3c(c2)C2(CCO3)CC2)n1CC1CCCCC1 (stereo not drawn) [17/2]	1000 nM	6.0/6.6/6.5	6.0/6.6/6.5
			Cc1c(C(=O)NCCCCCS(C)(=O)=O)cc(-c2cc(C(C)(C)C)c3c(c2)C2(CCO3)CC2)n1CC1CCCCC1 [17/4]	631 nM	6.2/6.7/6.7	6.2/6.7/6.7
			Cc1c(C(=O)NN2CCOCC2)cc(-c2cc(C(C)(C)C)c3c(c2)C2(CCO3)CC2)n1CC1CCCCC1 [17/9]	631 nM	6.2/6.8/6.8	6.2/6.8/6.8
			Cc1c(C(=O)NCC2CCS(=O)(=O)CC2)cc(-c2cc(C(C)(C)C)c3c(c2)C2(CCO3)CC2)n1CC1CCCCC1 [17/10]	398 nM	6.4/7.6/7.6	6.4/7.6/7.6
			Cc1c(C(=O)NCC2(S(C)(=O)=O)CCOCC2)cc(-c2cc(C(C)(C)C)c3c(c2)C2(CCO3)CC2)n1CC1CCCCC1 [17/11]	200 nM	6.7/7.2/7.2	6.7/7.2/7.2
			Cc1c(C(=O)NC2(C)COC2)cc(-c2cc(C(C)(C)C)c3c(c2)C2(CCO3)CC2)n1CC1CCCCC1 [17/13]	631 nM	6.2/6.8/6.9	6.2/6.8/6.9
1260 nM	5.9	5.7	Cc1c(C(=O)NCC2COCCN2C)cc(-c2cc(C(C)(C)C)c3c(c2)C2(CCO3)CC2)n1CC1CCCCC1 (stereo not drawn) [17/14]			
794 nM	7.2	7.1	Cc1c(C(=O)NC2CCS(=O)(=O)C2)cc(-c2cc(C(C)(C)C)c3c(c2)C2(CCO3)CC2)n1CC1CCCCC1 (stereo not drawn) [17/15]			
3980 nM	6.1	6.0	Cc1c(C(=O)NCc2nc(C(=O)O)co2)cc(-c2cc(C(C)(C)C)c3c(c2)C2(CCO3)CC2)n1CC1CCCCC1 [17/16]			
			Cc1c(C(=O)NCc2nc(C(N)=O)co2)cc(-c2cc(C(C)(C)C)c3c(c2)C2(CCO3)CC2)n1CC1CCCCC1 [17/17]	794 nM	6.1/6.3/6.4	6.1/6.3/6.4
			Cc1c(C(=O)NCc2cocn2)cc(-c2cc(C(C)(C)C)c3c(c2)C2(CCO3)CC2)n1CC1CCCCC1 [17/18]	1000 nM	6.0/6.1/6.1	6.0/6.1/6.1
794 nM	7.5	7.5	Cc1c(C(=O)NCC(C)(C)CC(=O)O)cc(-c2cc(C(C)(C)C)c3c(c2)C2(CCO3)CC2)n1CC1CCCCC1 [17/19]			

IC50 [1, 2]	pIC50 (FF) (RORγ; [3])	pIC50 (REN) (RORγ; [4])	SMILES	IC50 [1]	pIC50 (FF) (RORγ)	pIC50 (REN) (RORγ)
398 nM	7.1	7.1	Cc1c(C(=O)NCC(C)(C)CC(N)=O)cc(-c2cc(C(C)(C)C)c3c(c2)C2(CCO3)CC2)n1CC1CCCCC1 [17/20]			
			Cc1c(C(=O)NC2CC(=O)C2)cc(-c2cc(C(C)(C)C)c3c(c2)C2(CCO3)CC2)n1CC1CCCCC1 [17/21]	631 nM	6.2/7.0/6.9	6.2/7.0/6.9
3160 nM	5.8	5.7	Cc1c(C(=O)NC2SC(=O)NC2=O)cc(-c2cc(C(C)(C)C)c3c(c2)C2(CCO3)CC2)n1CC1CCCCC1 (stereo not drawn) [17/24]			
			Cc1c(C(=O)NC2C[S+]([O-])C2)cc(-c2cc(C(C)(C)C)c3c(c2)C2(CCO3)CC2)n1CC1CCCCC1 (stereo not drawn) [17/25]	316 nM	6.5/6.9/7.0	6.5/6.9/7.0
1580 nM	7.3	7.3	Cc1c(C(=O)NCC(C)(C)C(=O)NS(C)(=O)=O)cc(-c2cc(C(C)(C)C)c3c(c2)C2(CCO3)CC2)n1CC1CCCCC1 [17/26]			
1260 nM	6.8	6.7	Cc1c(C(=O)NCC(C)(C)NC(=O)CCC(=O)O)cc(-c2cc(C(C)(C)C)c3c(c2)C2(CCO3)CC2)n1CC1CCCCC1 [17/29]			
251 nM	7.7	7.7	Cc1c(C(=O)NCC(C)(C)NC(=O)CO)cc(-c2cc(C(C)(C)C)c3c(c2)C2(CCO3)CC2)n1CC1CCCCC1 [17/30]			
			Cc1c(C(=O)NCC(C)(C)NC(=O)CCO)cc(-c2cc(C(C)(C)C)c3c(c2)C2(CCO3)CC2)n1CC1CCCCC1 [17/31]	1000 nM	6.0/7.3/7.3	6.0/7.3/7.3
			COCCS(=O)(=O)NC(C)(C)CNC(=O)c1cc(-c2cc(C(C)(C)C)c3c(c2)C2(CCO3)CC2)n(CC2CCCCC2)c1C [17/32]	200 nM	6.7/7.2/7.2	6.7/7.2/7.2
631 nM	7.1	7.2	Cc1c(C(=O)NCC(C)(C)NS(=O)(=O)C2CC2)cc(-c2cc(C(C)(C)C)c3c(c2)C2(CCO3)CC2)n1CC1CCCCC1 [17/33]			
1580 nM	7.0	6.9	Cc1c(C(=O)NCC2(C(=O)NCCCO)CCOCC2)cc(-c2cc(C(C)(C)C)c3c(c2)C2(CCO3)CC2)n1CC1CCCCC1 [17/34]			
1580 nM	6.4	6.3	Cc1c(C(=O)NCC(C)(C)NC(=O)CC2SC(=O)NC2=O)cc(-c2cc(C(C)(C)C)c3c(c2)C2(CCO3)CC2)n1CC1CCCCC1 (stereo not drawn) [17/35]			
1000 nM	6.7	6.7	Cc1c(C(=O)NCC2(O)CC[S+]([O-])CC2)cc(-c2cc(C(C)(C)C)c3c(c2)C2(CCO3)CC2)n1CC1CCCCC1 (stereo not drawn) [17/38]			
			Cc1c(C(=O)N(C)CC2(O)CCOCC2)cc(-c2cc(C(C)(C)C)c3c(c2)C2(CCO3)CC2)n1CC1CCCCC1 [17/39]	398 nM	6.4/6.9/6.8	6.4/6.9/6.8
1260 nM	6.9	6.8	Cc1c(C(=O)NCC2(C(=O)O)CCOCC2)cc(-c2cc(C(C)(C)C)c3c(c2)C2(CCO3)CC2)n1CC1CCCCC1 [17/40]			

SMILES	IC50 [1, 2]	pIC50 (FF) (RORγ; [3])	pIC50 (REN) (RORγ; [4])	IC50 [1]	pIC50 (FF) (RORγ)	pIC50 (REN) (RORγ)
Cc1c(C(=O)NC[C@H]2CCCO2)cc(-c2cc(C(C)(C)C)c3c(c2)C2(CCO3)CC2)n1CC1CCCCC1 [17/5]	316 nM	6.4	6.4			
Cc1c(C(=O)NC[C@@H]2CCCO2)cc(-c2cc(C(C)(C)C)c3c(c2)C2(CCO3)CC2)n1CC1CCCCC1 [17/6]	251 nM	6.4	6.5			
Cc1c(C(=O)NCC2(CO)COC2)cc(-c2cc(C(C)(C)C)c3c(c2)C2(CCO3)CC2)n1CC1CCCCC1 [17/8]	794 nM	7.2	7.2			
Cc1c(C(=O)NCC2CCS(=O)(=O)C2)cc(-c2cc(C(C)(C)C)c3c(c2)C2(CCO3)CC2)n1CC1CCCCC1 (stereo not drawn) [17/12]	200 nM	7.2	7.4			
Cc1c(C(=O)NC2CC(C)(O)C2)cc(-c2cc(C(C)(C)C)c3c(c2)C2(CCO3)CC2)n1CC1CCCCC1 (stereo not drawn) [17/22]	1000 nM	6.5	6.6			
Cc1c(C(=O)NCC(O)C(F)(F)F)cc(-c2cc(C(C)(C)C)c3c(c2)C2(CCO3)CC2)n1CC1CCCCC1 (stereo not drawn) [17/23]	1260 nM	6.6	6.6			
CC(=O)NC(C)(C)CNC(=O)c1cc(-c2cc(C(C)(C)C)c3c(c2)C2(CCO3)CC2)n(CC2CCCCC2)c1C [17/28]	251 nM	7.4	7.4			
Cc1c(C(=O)NCC2(O)COC2)cc(-c2cc(C(C)(C)C)c3c(c2)C2(CCO3)CC2)n1CC1CCCCC1 [17/36]	794 nM	6.9	6.9			
Cc1c(C(=O)NCC2(O)CCSCC2)cc(-c2cc(C(C)(C)C)c3c(c2)C2(CCO3)CC2)n1CC1CCCCC1 [17/37]	1260 nM	7.1	7.1			
Cc1c(C(=O)NCC2(C(N)=O)CCOCC2)cc(-c2cc(C(C)(C)C)c3c(c2)C2(CCO3)CC2)n1CC1CCCCC1 [17/41]	398 nM	8.1	8.2			
